From ChEMBL document CHEMBL2021833, “Calcitonin gene-related peptide (CGRP) receptor antagonists: pyridine as a replacement for a core amide group” (Bioorg Med Chem Lett, 2012)

Experiments:
Liver microsomes [1] = test: Metabolic stability in rat liver microsomes; format: ADME, Microsome
Liver microsomes [2] = test: Metabolic stability in human liver microsomes; format: ADME, Microsome
[3] = target: T1, Calcitonin gene-related peptide type 1 receptor (Homo sapiens, UniProt O60894+Q16602); test: Displacement of [I125]CGRP from CGRP receptor in human SK-N-MC cell membrane after 2 hrs by gamma or scintillation counting; format: cell membranes
T1 sequence (Q16602 whole entry, one chain of several): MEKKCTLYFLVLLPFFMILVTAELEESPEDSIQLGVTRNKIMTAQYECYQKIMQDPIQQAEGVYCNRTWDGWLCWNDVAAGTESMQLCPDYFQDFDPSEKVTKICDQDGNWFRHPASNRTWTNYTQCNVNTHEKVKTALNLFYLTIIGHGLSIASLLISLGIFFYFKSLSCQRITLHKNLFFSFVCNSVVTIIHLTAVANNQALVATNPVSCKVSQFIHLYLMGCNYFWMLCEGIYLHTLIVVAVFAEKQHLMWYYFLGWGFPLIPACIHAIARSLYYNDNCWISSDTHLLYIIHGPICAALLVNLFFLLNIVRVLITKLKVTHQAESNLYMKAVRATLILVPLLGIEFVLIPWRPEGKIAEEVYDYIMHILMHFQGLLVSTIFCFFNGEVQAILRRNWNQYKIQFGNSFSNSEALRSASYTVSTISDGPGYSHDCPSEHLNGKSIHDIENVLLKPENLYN

[4] = target: T1, Calcitonin gene-related peptide type 1 receptor; test: Antagonist activity at CGRP receptor in human SK-N-MC cells assessed as inhibition of CGRP-stimulated cAMP production; format: functional, cell-based
[5] = Oral bioavailability in rat; format: ADME, organism-based; settings: in vivo
[6] = Permeability across human Caco2 cells; format: ADME, cell-based; settings: Caco-2, read-out: permeability
Plasma = test: Fraction unbound in po dosed rat plasma; format: ADME, organism-based; settings: in vivo
[7] = target: T1, Calcitonin gene-related peptide type 1 receptor; test: Antagonist activity at CGRP receptor in human SK-N-MC cells assessed as inhibition of CGRP-stimulated cAMP production in presence of plasma; format: functional, cell-based

SMILES: Cc1cc(CC(OC(=O)N2CCC(N3Cc4ccccc4NC3=O)CC2)c2cc(-c3ccncc3)ccn2)cc2cn[nH]c12 (stereo unspecified)
- Stability (Liver microsomes [1]): Unstable
- Stability (Liver microsomes [2]): Unstable
- IC50 [3]: 0.27 nM

SMILES: Cc1cc(CC(NC(=O)N2CCC(N3Cc4ccccc4NC3=O)CC2)c2cc3ccccc3cn2)cc2cn[nH]c12 (stereo unspecified)
- IC50 [4]: 1 nM
- IC50 [3]: 0.82 nM

SMILES: Cc1cc(CC(OC(=O)N2CCC(N3Cc4ccccc4NC3=O)CC2)c2cc3ccccc3cn2)cc2cn[nH]c12 (stereo unspecified)
- Stability (Liver microsomes [1]): Unstable
- Stability (Liver microsomes [2]): Unstable
- IC50 [4]: 0.63 nM
- IC50 [3]: 0.46 nM

SMILES: Cc1cc(CC(CC(=O)N2CCC(N3Cc4ccccc4NC3=O)CC2)c2ccc(CO)cn2)cc2cn[nH]c12 (stereo unspecified)
- IC50 [4]: 6 nM
- IC50 [3]: 7.9 nM

SMILES: Cc1cc(CC(NC(=O)N2CCC(N3Cc4ccccc4NC3=O)CC2)c2cccc(Br)n2)cc2cn[nH]c12 (stereo unspecified)
- IC50 [4]: 0.82 nM
- IC50 [3]: 0.49 nM

SMILES: Cc1cc(CC(NC(=O)N2CCC(N3Cc4ccccc4NC3=O)CC2)c2ccccn2)cc2cn[nH]c12 (stereo unspecified)
- IC50 [4]: 4.1 nM
- IC50 [3]: 3.1 nM

SMILES: Cc1cc(CC(OC(=O)N2CCC(N3Cc4ccccc4NC3=O)CC2)c2cc(C(=O)N(C)C)ccn2)cc2cn[nH]c12 (stereo unspecified)
- Stability (Liver microsomes [1]): Unstable
- Stability (Liver microsomes [2]): Unstable
- IC50 [3]: 0.33 nM

SMILES: Cc1cc(CC(CC(=O)N2CCC(N3Cc4cccc(F)c4NC3=O)CC2)c2ccccn2)cc2cn[nH]c12 (stereo unspecified)
- bioavailability [5]: 3%
- IC50 [4]: 20 nM
- IC50 [3]: 35 nM
- Papp [6]: 21 ×10⁻⁶ cm/s

SMILES: Cc1cc(CC(OC(=O)N2CCC(n3c(=O)[nH]c4ncccc43)CC2)c2cc(C(=O)N(C)C)cc(Cl)n2)cc2cn[nH]c12 (stereo unspecified)
- Cp(f) (Plasma): 21%
- IC50 [3]: 0.071 nM
- Ki [7]: 0.18 nM
- Papp [6]: 1.6 ×10⁻⁶ cm/s

SMILES: Cc1cc(CC(OC(=O)N2CCC(N3Cc4ccccc4NC3=O)CC2)c2ccccn2)cc2c(CN3CCCCC3)n[nH]c12 (stereo unspecified)
- IC50 [3]: 6.6 nM

SMILES: Cc1cc(CC(OC(=O)N2CCC(N3Cc4ccccc4NC3=O)CC2)c2ccc3ccccc3n2)cc2cn[nH]c12 (stereo unspecified)
- Stability (Liver microsomes [1]): Unstable
- Stability (Liver microsomes [2]): Unstable
- IC50 [4]: 4.8 nM
- IC50 [3]: 1.4 nM

SMILES: Cc1cc(CC(OC(=O)N2CCC(c3cc4ccccc4[nH]c3=O)CC2)c2cc(CN3CCCCCC3)ccn2)cc2cn[nH]c12 (stereo unspecified)
- Stability (Liver microsomes [1]): Unstable
- Stability (Liver microsomes [2]): Unstable
- IC50 [4]: 0.042 nM
- IC50 [3]: 0.095 nM
- Papp [6]: 2.8 ×10⁻⁶ cm/s

SMILES: Cc1cc(CC(OC(=O)N2CCC(N3Cc4ccccc4NC3=O)CC2)c2ccccn2)cc2c(C=O)n[nH]c12 (stereo unspecified)
- IC50 [3]: 1.3 nM

SMILES: Cc1cc(CC(OC(=O)N2CCC(N3Cc4ccccc4NC3=O)CC2)c2ccccn2)cc2c(CN3CCCC3)n[nH]c12 (stereo unspecified)
- IC50 [3]: 6.8 nM

SMILES: Cc1cc(CC(OC(=O)N2CCC(N3Cc4ccccc4NC3=O)CC2)c2cc(C(=O)N3CCCCC3)ccn2)cc2cn[nH]c12 (stereo unspecified)
- Stability (Liver microsomes [1]): Unstable
- Stability (Liver microsomes [2]): Unstable
- IC50 [4]: 0.099 nM
- IC50 [3]: 0.28 nM

SMILES: Cc1cc(CC(OC(=O)N2CCC(N3CCc4ccccc4NC3=O)CC2)c2cc(C(=O)N(C)C)cc(Cl)n2)cc2cn[nH]c12 (stereo unspecified)
- IC50 [3]: 0.093 nM
- Papp [6]: < 1.5 ×10⁻⁶ cm/s

SMILES: Cc1cc(C[C@@H](NC(=O)N2CCC(N3Cc4cccc(F)c4NC3=O)CC2)C(=O)N2CCC(N3CCCCC3)CC2)cc2cn[nH]c12
- Ki [3]: 0.013 nM

SMILES: Cc1ccc(C(CC(=O)N2CCC(N3Cc4ccccc4NC3=O)CC2)Cc2cc(C)c3[nH]ncc3c2)nc1 (stereo unspecified)
- bioavailability [5]: 1%
- IC50 [4]: 18 nM
- IC50 [3]: 12 nM
- Papp [6]: 6.4 ×10⁻⁶ cm/s

SMILES: Cc1cc(CC(CC(=O)N2CCC(N3Cc4ccccc4NC3=O)CC2)c2ccc(CN3CCCCC3)cn2)cc2cn[nH]c12 (stereo unspecified)
- IC50 [4]: 1.3 nM
- IC50 [3]: 1.8 nM
- Papp [6]: < 1.5 ×10⁻⁶ cm/s

SMILES: Cc1cc(CC(OC(=O)N2CCC(N3Cc4ccccc4NC3=O)CC2)c2cc(C=O)ccn2)cc2cn[nH]c12 (stereo unspecified)
- Stability (Liver microsomes [1]): Unstable
- Stability (Liver microsomes [2]): Unstable
- IC50 [4]: 0.28 nM
- IC50 [3]: 0.21 nM

SMILES: Cc1cc(C[C@@H](OC(=O)N2CCC(c3cc4ccccc4[nH]c3=O)CC2)c2cc(C(=O)N(C)C)cc(Cl)n2)cc2cn[nH]c12
- IC50 [4]: 0.064 nM
- IC50 [3]: 0.077 nM

SMILES: Cc1cc(CC(CC(=O)N2CCC(N3Cc4ccccc4NC3=O)CC2)c2ccccn2)cc2cn[nH]c12 (stereo unspecified)
- bioavailability [5]: 3%
- IC50 [4]: 8.7 nM
- IC50 [3]: 8.6 nM
- Papp [6]: 12 ×10⁻⁶ cm/s

SMILES: Cc1cc(CC(OC(=O)N2CCC(N3Cc4ccccc4NC3=O)CC2)c2ccccn2)cc2c(CN3CCOCC3)n[nH]c12 (stereo unspecified)
- IC50 [3]: 1.9 nM

SMILES: Cc1cc(CC(OC(=O)N2CCC(c3cc4ccccc4[nH]c3=O)CC2)c2cc(CN3CCCCC3)ccn2)cc2cn[nH]c12 (stereo unspecified)
- Stability (Liver microsomes [1]): Unstable
- Stability (Liver microsomes [2]): Unstable
- IC50 [4]: 0.1 nM
- IC50 [3]: 0.16 nM
- Papp [6]: 8.5 ×10⁻⁶ cm/s

SMILES: Cc1cc(CC(OC(=O)N2CCC(N3Cc4ccccc4NC3=O)CC2)c2cc(CO)ccn2)cc2cn[nH]c12 (stereo unspecified)
- Stability (Liver microsomes [1]): Unstable
- Stability (Liver microsomes [2]): Unstable
- IC50 [4]: 2.1 nM
- IC50 [3]: 2 nM

SMILES: Cc1cc(CC(OC(=O)N2CCC(N3Cc4ccccc4NC3=O)CC2)c2ccccn2)cc2c(-c3ccccc3)n[nH]c12 (stereo unspecified)
- IC50 [3]: 0.24 nM

SMILES: Cc1cc(CC(NC(=O)N2CCC(N3Cc4ccccc4NC3=O)CC2)c2cccc(-c3ccccc3)n2)cc2cn[nH]c12 (stereo unspecified)
- IC50 [4]: 14 nM
- IC50 [3]: 12 nM

SMILES: Cc1cccc(C(Cc2cc(C)c3[nH]ncc3c2)NC(=O)N2CCC(N3Cc4ccccc4NC3=O)CC2)n1 (stereo unspecified)
- IC50 [4]: 3.4 nM
- IC50 [3]: 3.8 nM

SMILES: Cc1cc(CC(OC(=O)N2CCC(N3Cc4ccccc4NC3=O)CC2)c2cc(C(=O)O)ccn2)cc2cn[nH]c12 (stereo unspecified)
- Stability (Liver microsomes [1]): Unstable
- Stability (Liver microsomes [2]): Unstable
- IC50 [4]: 28 nM
- IC50 [3]: 30 nM

SMILES: COC(=O)c1ccnc(C(Cc2cc(C)c3[nH]ncc3c2)OC(=O)N2CCC(N3Cc4ccccc4NC3=O)CC2)c1 (stereo unspecified)
- Stability (Liver microsomes [1]): Unstable
- Stability (Liver microsomes [2]): Unstable
- IC50 [3]: 4.4 nM

SMILES: Cc1cc(CC(NC(=O)N2CCC(N3Cc4ccccc4NC3=O)CC2)c2ccc3ccccc3n2)cc2cn[nH]c12 (stereo unspecified)
- IC50 [4]: 1.4 nM
- IC50 [3]: 2 nM

SMILES: Cc1cc(CC(OC(=O)N2CCC(N3Cc4ccccc4NC3=O)CC2)c2ccccn2)cc2cn[nH]c12 (stereo unspecified)
- Stability (Liver microsomes [1]): Unstable
- Stability (Liver microsomes [2]): Unstable
- IC50 [4]: 1.9 nM
- IC50 [3]: 1.5 nM

SMILES: Cc1cc(CC(CC(=O)N2CCC(N3Cc4ccccc4NC3=O)CC2)c2ccc(C=O)cn2)cc2cn[nH]c12 (stereo unspecified)
- IC50 [4]: 0.94 nM
- IC50 [3]: 1.1 nM

SMILES: Cc1cc(CC(OC(=O)N2CCC(c3cc4ccccc4[nH]c3=O)CC2)c2cc(C(=O)N(C)C)cc(Cl)n2)cc2cn[nH]c12 (stereo unspecified)
- bioavailability [5]: 4.5%
- Cp(f) (Plasma): 6%
- IC50 [4]: 0.34 nM
- IC50 [3]: 0.28 nM
- Ki [7]: 3.3 nM
- Papp [6]: 5.2 ×10⁻⁶ cm/s

SMILES: Cc1cc(CC(OC(=O)N2CCC(N3Cc4ccccc4NC3=O)CC2)c2ccccn2)cc2c(Br)n[nH]c12 (stereo unspecified)
- IC50 [3]: 0.33 nM

SMILES: Cc1cc(CC(OC(=O)N2CCC(c3cc4ccccc4[nH]c3=O)CC2)c2ccccn2)cc2cn[nH]c12 (stereo unspecified)
- Stability (Liver microsomes [1]): Unstable
- Stability (Liver microsomes [2]): Unstable
- IC50 [3]: 12 nM

SMILES: Cc1cc(CC(OC(=O)N2CCC(c3cc4ccccc4[nH]c3=O)CC2)c2cc(CN3CCOCC3)ccn2)cc2cn[nH]c12 (stereo unspecified)
- Stability (Liver microsomes [1]): Unstable
- Stability (Liver microsomes [2]): Unstable
- IC50 [3]: 1.2 nM
- Papp [6]: 9.9 ×10⁻⁶ cm/s

SMILES: Cc1cc(CC(OC(=O)N2CCC(N3Cc4ccccc4NC3=O)CC2)c2cc(CN3CCCCC3)ccn2)cc2cn[nH]c12 (stereo unspecified)
- Stability (Liver microsomes [1]): Unstable
- Stability (Liver microsomes [2]): Unstable
- IC50 [4]: 0.02 nM
- IC50 [3]: 0.1 nM

SMILES: Cc1cc(CC(OC(=O)N2CCC(N3Cc4ccccc4NC3=O)CC2)c2ccccn2)cc2c(Cl)n[nH]c12 (stereo unspecified)
- IC50 [3]: 0.39 nM

SMILES: Cc1cc(CC(OC(=O)N2CCC(c3cc4ccccc4[nH]c3=O)CC2)c2cc(CN3CCCC3)ccn2)cc2cn[nH]c12 (stereo unspecified)
- Stability (Liver microsomes [1]): Unstable
- Stability (Liver microsomes [2]): Unstable
- IC50 [3]: 0.24 nM
- Papp [6]: 4.9 ×10⁻⁶ cm/s

SMILES: Cc1cc(CC(OC(=O)N2CCC(N3Cc4ccccc4NC3=O)CC2)c2cccc(Br)n2)cc2cn[nH]c12 (stereo unspecified)
- Stability (Liver microsomes [1]): Unstable
- Stability (Liver microsomes [2]): Unstable
- IC50 [4]: 0.46 nM
- IC50 [3]: 0.38 nM

SMILES: Cc1cc(CC(CC(=O)N2CCC(c3cc4ccccc4[nH]c3=O)CC2)c2ccccn2)cc2cn[nH]c12 (stereo unspecified)
- IC50 [4]: 30 nM
- IC50 [3]: 24 nM
- Papp [6]: 3.4 ×10⁻⁶ cm/s

SMILES: CCc1ccnc(C(CC(=O)N2CCC(N3Cc4ccccc4NC3=O)CC2)Cc2cc(C)c3[nH]ncc3c2)c1 (stereo unspecified)
- bioavailability [5]: 2%
- IC50 [4]: 13 nM
- IC50 [3]: 10 nM
- Papp [6]: 14 ×10⁻⁶ cm/s

SMILES: Cc1cccnc1C(CC(=O)N1CCC(N2Cc3ccccc3NC2=O)CC1)Cc1cc(C)c2[nH]ncc2c1 (stereo unspecified)
- IC50 [4]: 8.2 nM
- IC50 [3]: 4.4 nM

SMILES: Cc1cc(CC(OC(=O)N2CCC(N3Cc4ccccc4NC3=O)CC2)c2cc(C#N)ccn2)cc2cn[nH]c12 (stereo unspecified)
- Stability (Liver microsomes [1]): Unstable
- Stability (Liver microsomes [2]): Unstable
- IC50 [3]: 3 nM
